Square brackets hold non-standard residues; d marks the D form. Ends that are not written are not given here. Peptide text beside a SMILES is read from it. hArg = N=C(N)NCCCC[C@H](N)C(=O)O; Nle = CCCC[C@H](N)C(=O)O; Aib = CC(C)(N)C(=O)O
Tests used:
human P1R [1] = target: T1, human P1R (Homo sapiens, UniProt Q03431); experiment: Competition binding in HKRK-B28 cells
T1 construct: expressed in transfected cells; host or cells: HKRK-B28 (porcine kidney LLC-PK1, stably transfected)
T1 sequence (Q03431 27-593): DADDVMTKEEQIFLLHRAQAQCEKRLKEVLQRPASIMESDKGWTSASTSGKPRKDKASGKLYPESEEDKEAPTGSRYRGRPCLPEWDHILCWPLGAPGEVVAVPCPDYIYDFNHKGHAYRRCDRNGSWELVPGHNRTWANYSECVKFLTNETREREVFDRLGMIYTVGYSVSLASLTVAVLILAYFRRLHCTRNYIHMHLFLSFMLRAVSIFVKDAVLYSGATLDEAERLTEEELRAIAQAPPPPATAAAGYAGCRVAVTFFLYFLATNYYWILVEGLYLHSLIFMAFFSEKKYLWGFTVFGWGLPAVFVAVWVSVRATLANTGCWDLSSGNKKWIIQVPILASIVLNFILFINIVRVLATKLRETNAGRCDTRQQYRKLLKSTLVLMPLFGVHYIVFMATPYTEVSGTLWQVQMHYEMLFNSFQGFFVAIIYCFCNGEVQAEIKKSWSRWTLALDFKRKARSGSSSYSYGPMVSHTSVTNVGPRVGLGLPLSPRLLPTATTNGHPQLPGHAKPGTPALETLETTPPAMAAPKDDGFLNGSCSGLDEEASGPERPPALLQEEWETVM
Protocol: (§1) Cell Culture. The cell line HKRK-B28 (Takasu, H., et al., J. Bone Miner. Res. 14:11-20 (1999)) was derived from the porcine kidney cell line, LLC-PK1 by stable transfection with plasmid DNA encoding the human P1R and expresses ˜280,000 receptors per cell. These cells, as well as COS-7 cells and SaOS-2-B10 cells, were cultured at […] in T-75 flasks ([…]) in Dulbecco's modified Eagle's medium (DMEM) supplemented with fetal bovine serum (10%), penicillin G (20 units/ml), streptomycin sulfate (20 μg/ml) and amphotericin B (0.05 μg/ml) in a humidified atmosphere containing 5% CO2. Stock solutions of EGTA/trypsin and antibiotics were from GIBCO; fetal bovine serum was from Hyclone Laboratories (Logan, Utah). COS-7 cells sub-cultured in 24-well plates were transfected with plasmid DNA (200 ng per well) encoding the wild-type human P1R or truncated human P1R deleted for residues (24-181) (Shimizu, M., et al., J. Biol. Chem. 275:21836-21843 (2000)) that was purified by cesium chloride/ethidium bromide density gradient centrifugation, and FuGENE 6 transfection reagent (Roche Indianapolis Ind.) according to the manufacturer's recommended procedure. All cells, in 24-well plates, were treated with fresh media and shifted to 33° C. for 12 to 24 h prior to assay.
Competition Binding. Binding reactions were performed with HKRK-B28 cells or in COS-7 cells in 24-well plates. The cells were rinsed with 0.5 mL of binding buffer, and then treated successively with 100 μL binding buffer, 100 μL of binding buffer containing various amounts of unlabeled competitor ligand, and 100 μL of binding buffer containing ca. 100,000 cpm of ^125I-[M]PTH(1-21) or ^125I-[Aib^1,3,M]PTH(1-21)} (ca. 26 fmol; final volume=300 μL). Incubations were 4 to 6 h at 4° C., at which time near equilibrium conditions were attained. Cells were then placed on ice, the binding medium was removed, and the monolayer was rinsed three times with 0.5 mL of cold binding buffer. The cells were subsequently lysed with 0.5 mL […] and counted for radioactivity. For each tracer and in each experiment, the non-specific binding was determined as the radioactivity that bound in the presence of the same unlabeled peptide at a concentration of 1 μM, and was ˜1% of total radioactivity added for each tracer. The maximum specific binding (B0) was the total radioactivity bound in the absence of competing ligand, corrected for nonspecific binding, and for each tracer, ranged from 8% to 20% of the total radioactivity added. Nonlinear regression was used to calculate binding IC50 values (see below). Scatchard transformations of homologous competition binding data derived from studies with 26 fmol of ^125I-[Aib^1,3,M]PTH(1-21) were employed for estimations of apparent equilibrium dissociation constant (kDapps) and total number of ligand binding sites (Bmax), assuming a single class of binding sites and equal affinities of the iodinated and non iodinated ligand.
(§2) Data Calculation. Calculations were performed using Microsoft® Excel. Nonlinear regression analyses of binding and cAMP dose-response data were performed using the four-parameter equation: yp=Min+[(Max−Min)/(1+(IC50/x)^slope)]. The Excel Solver function was utilized for parameter optimization, as described previously (Carter, P. H., et al., Endocrinology 140: 4972-4981 (1999); Bowen, W. P., and Jerman, J. C., Trends in Pharmacol. Sci. 16: 413-417 (1995)). Differences between paired data sets were statistically evaluated using a one-tailed Student's t-test, assuming unequal variances for the two sets.
The P1R-binding properties of these analogs were assayed in competition studies performed in […]. In previous studies, PTH(1-14) binding could not be detected using ^125I-PTH(1-34) and related N-terminally intact and relatively unmodified radioligands (Luck, M. D., et al., Molecular Endocrinology 13:670-680 (1999)). […]

human P1R [2] = target: T1, human P1R; experiment: cAMP stimulation in HKRK-B28 cells; format: cell-based; conditions: for cAMP EMax(obs.): basal 4.0 ± 0.1 pmole/well not subtracted
Protocol: as §1
(§3) cAMP Stimulation. Stimulation of cells with peptide analogs was performed in 24-well plates. Cells were rinsed with 0.5 mL of binding buffer (50 mM Tris-HCI, […], 5 mM KCl, 2 mM CaCl2, 5% heat-inactivated horse serum, 0.5% fetal bovine serum, adjusted to pH 7.5 with HCl) and treated with 200 μL of cAMP assay buffer (Delbecco's modified Eagle's medium containing 2 mM 3-isobutyl-1-methylxanthine, 1 mg/mL bovine serum albumin, 35 mM Hepes-NaOH, pH 7.4) and 100 μL of binding buffer containing varying amounts of peptide analog (final volume=300 μL). The medium was removed after incubation for 30 to 60 minutes at room temperature, and the cells were frozen on dry ice, lysed with 0.5 mL 50 mM HCl, and refrozen ([…]). The cAMP content of the diluted lysate was determined by radioimmunoassay. The EC50 response values were calculated using nonlinear regression (see below).
as §2

[3] = target: T2, PTH-1 receptor endogenously expressed in SaOS-2 cells (Homo sapiens, UniProt Q03431); experiment: cAMP stimulation in SaOS-2 cells; format: cell-based; conditions: for EMAX(obs.): cAMP, basal 6.4 ± 0.8
T2 construct: endogenously expressed relatively low levels of the PTH-1 receptor; endogenous in cells; host or cells: SaOS-2 (SaOS-2-B10) human osteosarcoma cells
T2 sequence (Q03431 27-593): T1 sequence (Q03431 27-593)
Protocol: as §1, §3, §2
The number of PTH-1 receptors expressed on the surface of the PTH target cells in bone or kidney is uncertain, but it is likely to be considerably lower than that found in HKRK-B28 cells. Therefore, several of the Aib-mounted PTH analogs were evaluated using SaOS-2 cells.

[4] = target: T3, P1R-delNt, truncated human P1R deleted for residues (24-181) (Homo sapiens, UniProt Q03431); experiment: cAMP stimulation in COS-7 cells expressing hP1R-delNt; format: cell-based; conditions: hP1R-delNT
T3 construct: expressed in transfected cells; host or cells: COS-7 (transient, FuGENE 6)
T3 sequence (Q03431 with tags, fused parts or gaps limits assumed): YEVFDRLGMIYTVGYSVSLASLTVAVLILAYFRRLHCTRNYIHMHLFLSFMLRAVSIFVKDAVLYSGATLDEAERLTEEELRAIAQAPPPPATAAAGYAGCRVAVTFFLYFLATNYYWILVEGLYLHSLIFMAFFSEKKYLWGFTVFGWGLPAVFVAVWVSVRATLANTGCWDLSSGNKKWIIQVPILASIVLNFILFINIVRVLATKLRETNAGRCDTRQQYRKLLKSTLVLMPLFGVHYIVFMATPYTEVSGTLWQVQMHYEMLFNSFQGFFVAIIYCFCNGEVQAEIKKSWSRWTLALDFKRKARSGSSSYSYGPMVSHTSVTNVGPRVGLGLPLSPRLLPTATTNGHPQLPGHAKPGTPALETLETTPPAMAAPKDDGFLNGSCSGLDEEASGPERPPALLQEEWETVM
Protocol: as §1, §3, §2
The possibility that the activity-enhancing effects of the Aib substitutions at positions 1 and 3 were mediated through the juxtamembrane (J) region of the receptor was investigated in COS-7 cells transiently transfected with P1R-delNt. P1R-delNt was a truncated P1R that lacked most of the amino-terminal extracellular domain.

[5] = target: T3, P1R-delNt, truncated human P1R deleted for residues (24-181); experiment: Competition binding in COS-7 cells expressing hP1R-delNt; conditions: direct binding of the radioligand
[6] = HKRK-B28 cells, tracer 125I-[M]PTH(1-21)amide, 4 h at 4° C., N.B. = no binding detected at 10 μm peptide

Molecule	fold improvement of apparent binding affinity relative to [M]PTH(1-14) (human P1R [1]; HKRK-B28 cells)	cAMP EMax(obs.) (human P1R [2]) [pmole/well]	fold more potent in stimulating cAMP formation than [M]PTH(1-14) [3] [fold]	EMAX(obs.) [3] [pmole/well]	EC50 (human P1R [2]) [nM]	other results
CC[C@H](C)[C@H](NC(=O)[C@H](CCC(=O)O)NC(=O)[C@H](C)NC(=O)[C@@H](NC(=O)C(C)(C)N)C(C)C)C(=O)N[C@@H](CCC(N)=O)C(=O)N[C@@H](CC(C)C)C(=O)N[C@@H](CCSC)C(=O)N[C@@H](Cc1c[nH]cn1)C(=O)N[C@@H](CCC(N)=O)C(=O)N[C@@H](CCCCNC(=N)N)C(=O)N[C@@H](C)C(=O)N[C@@H](CCCCN)C(=O)N[C@@H](Cc1c[nH]c2ccccc12)C(N)=O [Aib-1, AibValAlaGluIleGlnLeuMetHisGlnHarAlaLysTrp] (H-[Aib]VAEIQLMHQ[hArg]AKW-NH2)	approximately 10 fold	273 ± 6	15	340 ± 30	–	–
CC[C@H](C)[C@H](NC(=O)[C@H](CCC(=O)O)NC(=O)C(C)(C)NC(=O)[C@@H](NC(=O)[C@H](C)N)C(C)C)C(=O)N[C@@H](CCC(N)=O)C(=O)N[C@@H](CC(C)C)C(=O)N[C@@H](CCSC)C(=O)N[C@@H](Cc1c[nH]cn1)C(=O)N[C@@H](CCC(N)=O)C(=O)N[C@@H](CCCCNC(=N)N)C(=O)N[C@@H](C)C(=O)N[C@@H](CCCCN)C(=O)N[C@@H](Cc1c[nH]c2ccccc12)C(N)=O [Aib-3, AlaValAibGluIleGlnLeuMetHisGlnHarAlaLysTrp] (H-AV[Aib]EIQLMHQ[hArg]AKW-NH2)	approximately 10 fold	269 ± 7	8	330 ± 30	–	–
CC[C@H](C)[C@H](NC(=O)[C@H](CCC(=O)O)NC(=O)C(C)(C)NC(=O)[C@@H](NC(=O)C(C)(C)N)C(C)C)C(=O)N[C@@H](CCC(N)=O)C(=O)N[C@@H](CC(C)C)C(=O)N[C@@H](CCSC)C(=O)N[C@@H](Cc1c[nH]cn1)C(N)=O [[Aib^1,3]PTH(1-9)] (H-[Aib]V[Aib]EIQLMH-NH2)	–	10 ± 1	–	–	> 10000	Binding IC50 (human P1R [1]; [6]): did not bind detachably; Binding IC50 (human P1R [1]; HKRK-B28 cells, tracer 125I-[M]PTH(1-21)amide, 4 h at 4° C., N.B. = no binding detected at 10 μm peptide, listed as [Aib^1,3]PTH (1-9)): N.B.; stimulation of cAMP accumulation (in words) (human P1R [2]): Little or no stimulation of cAMP accumulation
CC[C@H](C)[C@H](NC(=O)[C@H](CCC(=O)O)NC(=O)[C@H](C)NC(=O)[C@@H](NC(=O)[C@H](C)N)C(C)C)C(=O)N[C@@H](CCC(N)=O)C(=O)N[C@@H](CC(C)C)C(=O)N[C@@H](CCSC)C(=O)N[C@@H](Cc1cnc[nH]1)C(=O)N[C@@H](CCC(N)=O)C(=O)N[C@@H](CCCCN=C(N)N)C(=O)N[C@@H](C)C(=O)N[C@@H](CCCCN)C(=O)N[C@@H](Cc1c[nH]c2ccccc12)C(N)=O [[M]PTH(1-14), [Ala^3,12,Gln^10,Har^11,Trp^14]PTH(1-14)amide, reference compound] (H-AVAEIQLMHQ[hArg]AKW-NH2)	–	–	–	–	100 ± 20	IC50 (human P1R [1]; [6]): 1.3e-05 M; EC50 [4]: 40 ± 2 nM
^125I-[M]PTH(1-21): radioiodinated [M]PTH(1-21) tracer radioligand (AVAEIQL[Nle]HQ[hArg]AKWLASVRRY-NH2; also: 125I radiolabel, position not given here) [reference compound]	–	–	–	–	–	binding of radiolabeled peptide to HKRK-B28 cells (in words) (human P1R [1]; direct binding of the radioligand): bound adequately; binding of radioligand to P1R-delNt (in words) [5]: did not bind detectably
